Measurements reported in ChEMBL document CHEMBL3085760, “Novel polyamine analogues: from substrates towards potential inhibitors of monoamine oxidases” (Eur J Med Chem, 2013).
Calls of active or inactive are those of the source. The calls are words filed in the database; no cut-off is given here.

Assays:
[1] = target: T1, Amine oxidase [copper-containing] 3 (Homo sapiens) (UniProt Q16853); experiment: Ratio of relative Vmax to Km for recombinant human VAP-1 assessed as hydrogen peroxide generation rate preincubated for 30 mins by Amplex Red assay relative to control
T1 sequence (whole entry): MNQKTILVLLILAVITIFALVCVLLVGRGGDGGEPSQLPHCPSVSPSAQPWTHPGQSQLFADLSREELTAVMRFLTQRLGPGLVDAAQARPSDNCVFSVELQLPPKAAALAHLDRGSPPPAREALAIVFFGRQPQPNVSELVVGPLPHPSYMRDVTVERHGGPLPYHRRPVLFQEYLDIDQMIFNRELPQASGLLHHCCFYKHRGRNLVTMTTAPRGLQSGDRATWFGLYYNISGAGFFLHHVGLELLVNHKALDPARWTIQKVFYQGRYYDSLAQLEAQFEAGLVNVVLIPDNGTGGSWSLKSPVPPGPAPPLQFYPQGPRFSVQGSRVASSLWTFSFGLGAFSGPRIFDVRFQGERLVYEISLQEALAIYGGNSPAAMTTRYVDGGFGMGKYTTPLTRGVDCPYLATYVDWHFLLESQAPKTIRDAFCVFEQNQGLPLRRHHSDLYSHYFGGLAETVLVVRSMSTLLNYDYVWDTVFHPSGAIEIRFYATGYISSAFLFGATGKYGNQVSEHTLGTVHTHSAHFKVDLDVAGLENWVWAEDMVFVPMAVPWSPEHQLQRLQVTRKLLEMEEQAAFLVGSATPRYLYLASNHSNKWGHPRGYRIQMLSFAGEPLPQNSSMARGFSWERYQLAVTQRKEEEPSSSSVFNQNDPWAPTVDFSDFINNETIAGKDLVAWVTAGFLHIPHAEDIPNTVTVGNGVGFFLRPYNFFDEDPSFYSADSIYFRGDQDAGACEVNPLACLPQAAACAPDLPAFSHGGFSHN

[2] = target: T1, Amine oxidase [copper-containing] 3 (Homo sapiens); experiment: Activity at recombinant human VAP-1 assessed as hydrogen peroxide generation rate per min/mg preincubated for 30 mins by Amplex Red assay relative to control
Homo sapiens [3] = organism: Homo sapiens; experiment: Selectivity ratio of Ki for recombinant human MAO-B to Ki for recombinant human MAO-A
[4] = target: T1, Amine oxidase [copper-containing] 3 (Homo sapiens); experiment: Ratio of relative Vmax to Km for recombinant human VAP-1 assessed as hydrogen peroxide generation rate using benzylamine as substrate at 200 uM preincubated for 30 mins by Amplex Red assay
[5] = target: T1, Amine oxidase [copper-containing] 3 (Homo sapiens); experiment: Activity at recombinant human VAP-1 assessed as hydrogen peroxide generation rate per min/mg using benzylamine as substrate at 200 uM preincubated for 30 mins by Amplex Red assay relative to control
[6] = target: T1, Amine oxidase [copper-containing] 3 (Homo sapiens); experiment: Activity at recombinant human VAP-1 assessed as hydrogen peroxide generation rate preincubated for 30 mins by Amplex Red assay
Homo sapiens [7] = organism: Homo sapiens; experiment: Selectivity ratio of Ki for recombinant human MAO-A to Ki for recombinant human MAO-B

## NCCCCCCCCCCCCNCc1ccccc1
[1]
  fold change (FC): 80
[2]
  fold change (FC): 1.88

## CN(CCCCCCCCCCCCN=C=S)Cc1ccccc1
Homo sapiens [3]
  Ratio Ki: 1.8
[4]
  fold change (FC): 0.66
[5]
  fold change (FC): 0.69

## NCCCCCCCCNCCCNCc1cccs1
[1]
  fold change (FC): 0.09
[2]
  fold change (FC): 0.38

## CN(CCCCCCCCCCCCN)Cc1ccccc1
[1]
  fold change (FC): 30
[2]
  fold change (FC): 0.73

## NCCCOCCCCOCCCNCc1cccs1
[1]
  fold change (FC): 0.87
[2]
  fold change (FC): 0.71

## NCCCNCCCCNCCCNCc1ccc2ccccc2c1
[4]
  fold change (FC): 0.97
[5]
  fold change (FC): 1.12
[6]
  Activity: inactive

## c1ccc(CNCCCCCCCCCCCCNCc2ccccc2)cc1
[4]
  fold change (FC): 0.35
[5]
  fold change (FC): 0.89

## NCCCCCCCCCCCCNCc1cccs1
[1]
  fold change (FC): 35
[2]
  fold change (FC): 1.77

## NCCCNCCCCNCCCN
[4]
  fold change (FC): 0.96
[5]
  fold change (FC): 1

## NCCCNCCCCNCCCNCc1cccs1
Homo sapiens [7]
  Ratio Ki: 9.8
[4]
  fold change (FC): 0.6
[5]
  fold change (FC): 1
[6]
  Activity: inactive

## NCCCNCCCCNCCCNCc1ccccc1
Homo sapiens [3]
  Ratio Ki: 1.7
[4]
  fold change (FC): 0.66
[5]
  fold change (FC): 0.77

## NCCCNCCCCNCCCNCc1cccnc1
[4]
  fold change (FC): 0.69
[5]
  fold change (FC): 0.85
[6]
  Activity: inactive
